Source: patent US20220167645A1, “METHODS OF IMPROVING FISH FEED CONVERSION RATE AND SURVIVAL” (AQUINOVO LTD., priority 2019, published 2022)
Numbered stars: 1 amine (or outer) side, 2 acyl side, 3 side chain; on linkers, the order of the positions; unused ones are H or OH. Square brackets hold non-standard residues; d marks the D form. Suc = O=C(CCC(=O)[*:2])[*:1]; NMeV = CN[C@H](C(=O)O)C(C)C; βAla = NCCC(=O)O

Tested on: Tilapia fish
Assay: Experiment #3: tilapia fed AN6-coated feed, treatment schedules 1 to 8 (survival, weight, length, size distribution, FCR)
Assay type: in vivo
Details: for % big fish (Big fish 279 dph >1000 g) / % small fish (Small fish 279 dph >476 g) / Δ Treatment - Control (%) big fish (>1000 g) / Δ Treatment - Control (%) small fish (>476 g) / Big fish # (Big fish 279 dph >1000 g) / Small fish # (Small fish 279 dph): 279 dph
Description: The following fish feed was used in this experiment: MeM (powder, manufactured by Bern Aqua), Nanolis P1, P2 (pellet sizes of 1 mm, 1.2-1.5 mm, respectively, manufactured by Ocialis) and Tilaphi 2, 3 & 4 (pellet sizes of 2 mm, 3-4 mm & 5.5 mm manufactured by Ocialis). The feed content is in described in Table 4.
Feed was coated using the following general procedure: Different amounts of the peptide AN6 (SEQ ID NO: 6) were prepared by dissolving the peptide in Tris-HCl solution (50 mM, pH=8.8) in ratio of 15 mg peptide to 1.25 ml Tris-HCl solution. Then, each of the various solutions was mixed with 3 Kg of the basic feed pellets (depending on fish size) using an electric mixer. The peptide-feed mixtures where then dried either in oven at 40° C. for 24 hours or in drying drum (at room temperature) for few hours to form coated pellets.
Tilapia fish (n=4800) were raised from day 10 (0.05 g) post-hatch (dph) in indoor tanks and then transferred to outdoor cages in ponds (40-279 dph). Each cage/tank is an experimental unit. The fish were fed to apparent satiation 2-4 times a day with feed appropriate to their age and treatment as described in Table 5.
The trial included total 48 cages representing 8 treatments, with 6 repeats each. Each cage contained about 100 fish. […] Fed to fish throughout the entire growth-trial period (for 279 days); • Treatment 2 (5 ppm from 10 dph for 120 days): The control diet with the addition of 5 mg peptide/kg of diet (Feed F). Fish were fed the peptide enriched diet for 120 days (4 months), from 10 days of age (D0—the first day of the experiment) to 130 days of age (D120), and the control diet during the last 6 months (159 days) (Feed E); • Treatment 3 (10 ppm from 10 dph for 60 days): The control diet with the addition of 10 mg peptide/kg of diet (Feed G). […] Fish were fed the peptide enriched diet for 90 days (3 months) from 10 days of age (D0) to 100 days of age (D90) and the control diet for the last 7 months (189 days) (Feed E); • Treatment 5 (10 ppm from 10 dph for 120 days): The control diet with the addition of 10 mg peptide/kg of diet (Feed G). Fish were fed the peptide enriched diet for 120 days (4 months) from 10 days of age (D0) to 130 days of age (D120) and the control diet for the last 6 months (159 days) (Feed E); • Treatment 6 (10 ppm from 100 dph for 30 days): The control diet with the addition of 10 mg peptide/kg of diet (Feed G). Fish were fed the peptide enriched diet for 30 days (1 month) from 100 days of age (D90) to 130 days of age (D120) and the control diet for the first three months (90 days from D0 to D90) and the last 6 months (159 days) (Feed E); • Treatment 7 (30 ppm from 10 dph for 60 days): The control diet with the addition of 30 mg peptide/kg of diet (Feed H). Fish were fed the peptide enriched diet for 60 days (2 months) from 10 days of age (D0) to 70 days of age (D60), and the control diet during the last 8 months (219 days) (Feed E); • Treatment 8 (30 ppm from 10 dph for 90 days): The control diet with the addition of 30 mg peptide/kg of diet (Feed H). Fish were fed the peptide enriched diet for 90 days (3 months) from 10 days of age (D0) to 100 days of age (D90) and the control diet for the last 7 months (189 days) (Feed E).
During the experimental period, fish weight and length were measured once a month. Individual fish sex was determined at days 96 and 279 of the experiment. Average fish weight per cage were calculated for each measurement period (FIG. 8). […] Between two weight measurements, average weight gain (FIG. 9A) and daily growth rates (FIG. 9B) were calculated by subtracting the average weight at the beginning and end of the measuring period and dividing by the number of days between.
In order to determine the efficiency of feed conversion into fish substance in experiments (#1, #2, #3), FCR values which reflect the amount of feed needed to grow a kilogram fish, were calculated for each period and for the entire fish growth period. […]

[1] = Treatment 3 (10 ppm from 10 dph for 60 days), female fish, D 96
[2] = Treatment 3 (10 ppm from 10 dph for 60 days), female fish, D 279
[3] = Treatment 3 (10 ppm from 10 dph for 60 days), male fish, D 96
[4] = Treatment 3 (10 ppm from 10 dph for 60 days), male fish, D 279
[5] = Treatment 4 (10 ppm from 10 dph for 90 days)
[6] = Treatment 4 (10 ppm from 10 dph for 90 days), of 463 fish
[7] = Treatment 4 (10 ppm from 10 dph for 90 days), D 236 to D 279, % change relative to control
[8] = Treatment 4 (10 ppm from 10 dph for 90 days), female fish, D 96
[9] = Treatment 4 (10 ppm from 10 dph for 90 days), female fish, D 279
[10] = Treatment 4 (10 ppm from 10 dph for 90 days), male fish, D 96
[11] = Treatment 4 (10 ppm from 10 dph for 90 days), male fish, D 279
[12] = Treatment 5 (10 ppm from 10 dph for 120 days)
[13] = Treatment 5 (10 ppm from 10 dph for 120 days), of 441 fish
[14] = Treatment 5 (10 ppm from 10 dph for 120 days), D 236 to D 279, % change relative to control

Succ-Asp-Ser- D-Trp -N(Me)Val-βAla-Leu-Met-NH2 (Suc-DS[dW][NMeV][βAla]LM-NH2; SMILES CSCC[C@H](NC(=O)[C@H](CC(C)C)NC(=O)CCNC(=O)[C@H](C(C)C)N(C)C(=O)[C@@H](Cc1c[nH]c2ccccc12)NC(=O)[C@H](CO)NC(=O)[C@H](CC(=O)O)NC(=O)CCC(=O)O)C(N)=O) [AN6]
Δ Mean % (Treatment vs. control) Length/fish [1]: 1.52%
Δ Mean % (Treatment vs. control) Weight/fish [1]: 6.63%
Length/fish (cm) Mean [2]: 30.5 cm
Weight/fish (g) Mean [2]: 629.02 g
Δ Mean % (Treatment vs. control) Length/fish [2]: 1.23%
Δ Mean % (Treatment vs. control) Weight/fish [2]: 4.51%
Length/fish (cm) Mean [3]: 17.19 cm
Weight/fish (g) Mean [3]: 106.51 g
Δ Mean % (Treatment vs. control) Length/fish [3]: −0.17%
Δ Mean % (Treatment vs. control) Weight/fish [3]: 0.96%
Length/fish (cm) Mean [4]: 34.14 cm
Weight/fish (g) Mean [4]: 877.38 g
Δ Mean % (Treatment vs. control) Length/fish [4]: −0.70%
Δ Mean % (Treatment vs. control) Weight/fish [4]: 1.39%
% big fish (Big fish 279 dph >1000 g) [5]: 14.7%
% small fish (Small fish 279 dph >476 g) [5]: 4.8%
Δ Treatment - Control (%) big fish (>1000 g) [5]: 4.4%
Δ Treatment - Control (%) small fish (>476 g) [5]: −4.4%
Big fish # (Big fish 279 dph >1000 g) [6]: 68
Small fish # (Small fish 279 dph) [6]: 22
Average FCR/cage [7]: −2.14%
Average density (body/cage) [7]: 3.34%
Average weight gain/fish (g) [7]: 1.69%
Average weight/fish (g) [7]: 3.89%
Total weight/cage (g) [7]: 7.37%
Length/fish (cm) Mean [8]: 15.96 cm
Weight/fish (g) Mean [8]: 86.4 g
Δ Mean % (Treatment vs. control) Length/fish [8]: 1.08%
Δ Mean % (Treatment vs. control) Weight/fish [8]: 5.08%
Length/fish (cm) Mean [9]: 30.48 cm
Weight/fish (g) Mean [9]: 631.17 g
Δ Mean % (Treatment vs. control) Length/fish [9]: 1.16%
Δ Mean % (Treatment vs. control) Weight/fish [9]: 4.86%
Length/fish (cm) Mean [10]: 17.26 cm
Weight/fish (g) Mean [10]: 111.87 g
Δ Mean % (Treatment vs. control) Length/fish [10]: 0.23%
Δ Mean % (Treatment vs. control) Weight/fish [10]: 6.04%
Length/fish (cm) Mean [11]: 34.15 cm
Weight/fish (g) Mean [11]: 881.92 g
Δ Mean % (Treatment vs. control) Length/fish [11]: −0.67%
Δ Mean % (Treatment vs. control) Weight/fish [11]: 1.92%
% big fish (Big fish 279 dph >1000 g) [12]: 12.0%
% small fish (Small fish 279 dph >476 g) [12]: 8.6%
Δ Treatment - Control (%) big fish (>1000 g) [12]: 1.8%
Δ Treatment - Control (%) small fish (>476 g) [12]: −0.5%
Big fish # (Big fish 279 dph >1000 g) [13]: 53
Small fish # (Small fish 279 dph) [13]: 38
Average FCR/cage [14]: −0.53%
Average density (body/cage) [14]: −1.78%
Average weight gain/fish (g) [14]: 7.59%
